In patent US6747027B1, “Thiol sulfonamide metalloprotease inhibitors” (Pharmacia Corporation, priority 1996, dated 2004):

Key:
[1] = target: T1, recombinant human MMP-13 (Homo sapiens, UniProt P45452); assay: In vitro metalloprotease inhibition, fluorogenic peptide assay (MMP-13); type: biochemical; conditions: recombinant human MMP-13, APMA activated; fluorogenic MCA peptide substrate 4 uM; pH 7.5, room temperature
T1 construct: made in house
Summary of the method: (§1)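 APMA-activated recombinant human MMP-13 (baculovirus-expressed) and MMP-1 (HT-1080-expressed) preincubated with inhibitor 10 min at room temperature in Tris/NaCl/CaCl2 buffer, pH 7.5, 1% DMSO final. MCA-PLGL-Dpa-AR-NH2 substrate at 4 uM final; cleavage read as fluorescence (ex 328/em 415 nm). IC50 from fluorescence reduction versus inhibitor concentration.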

[2] = target: T2, recombinant human MMP-1 (Homo sapiens, UniProt P03956); assay: In vitro metalloprotease inhibition, fluorogenic peptide assay (MMP-1); type: biochemical; conditions: recombinant human MMP-1, APMA activated; fluorogenic MCA peptide substrate 4 uM; pH 7.5, room temperature
T2 construct: made in house; host or cells: transfected HT-1080 cells (provided by Dr. Howard Welgus, Washington University)
T2 sequence (P03956 100-469): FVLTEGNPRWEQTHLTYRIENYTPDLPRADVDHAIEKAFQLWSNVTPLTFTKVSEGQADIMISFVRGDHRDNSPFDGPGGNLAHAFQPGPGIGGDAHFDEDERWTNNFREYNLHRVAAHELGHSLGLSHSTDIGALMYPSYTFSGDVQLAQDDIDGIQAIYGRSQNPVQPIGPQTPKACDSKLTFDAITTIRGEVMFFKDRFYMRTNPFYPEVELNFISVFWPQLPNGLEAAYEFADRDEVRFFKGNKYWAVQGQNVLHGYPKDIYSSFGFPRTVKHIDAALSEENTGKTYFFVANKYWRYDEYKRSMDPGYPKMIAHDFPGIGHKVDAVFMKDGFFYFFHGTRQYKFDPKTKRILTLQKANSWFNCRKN
Summary of the method: as §1

[3] = test system: angiogenesis in the cornea of a mouse; assay: In vivo angiogenesis assay (corneal micropocket assay, bFGF pellet); conditions: C57Bl/6 female mouse, 50 mg/kg bid, po, scored at day five
Method: The study of angiogenesis depends on a reliable and reproducible model for the stimulation and inhibition of a neovascular response. The corneal micropocket assay provides such a model of angiogenesis in the cornea of a mouse. See, A Model of Angiogenesis in the Mouse Cornea; Kenyon, B M, et al., Investigative Ophthalmology & Visual Science, July 1996, Vol. 37, No. 8.
In this assay, uniformly sized Hydron™ pellets containing bFGF and sucralfate were prepared and surgically implanted into the stroma mouse cornea adjacent to the temporal limbus. […]
Mice were dosed on a daily basis for the duration of the assay. […] At day five, the degree of angiogenic inhibition was scored by viewing the neovascular progression with a slit lamp microscope.
The mice were anesthetized and the studied eye was once again proptosed. The maximum vessel length of neovascularization, extending from the limbal vascular plexus toward the pellet was measured. In addition, the contiguous circumferential zone of neovascularization was measured as clock hours, where 30 degrees of arc equals 1 clock hour. The area of angiogenesis was calculated as [formula]
where the vessel length is measured in millimeters.
The studied mice were thereafter compared to control mice and the difference in the area of neovascularization was recorded.

Compound	IC50 [1] [nM]	IC50 [2] [nM]	inhibition of area of neovascularization versus control mice [3] [%]
CCCCOc1ccc(S(=O)(=O)N[C@@H](CS)C(=O)NCc2ccccc2)cc1 [Example 209]	50	> 10000	
NC(=O)[C@H](CSSC[C@@H](C(N)=O)N(CCN1CCOCC1)S(=O)(=O)c1ccc(Oc2ccccc2)cc1)N(CCN1CCOCC1)S(=O)(=O)c1ccc(Oc2ccccc2)cc1 [Example 213]	1.5	> 10000	
CC(=O)SC[C@@H](C(N)=O)N(CCN1CCOCC1)S(=O)(=O)c1ccc(Sc2ccccc2)cc1 [Example 216]	200	> 10000	
C[C@H](CS)NS(=O)(=O)c1ccc(/N=N/c2ccc(N(C)C)cc2)cc1 [Example 217]	1.5	> 10000	
NC(=O)[C@H](CS)N(CCN1CCOCC1)S(=O)(=O)c1ccc(NC(=O)c2ccccc2)cc1 [Example 218, N-(4-benzoylamino)phenylsulfonyl-N-(4-(morpholino-ethyl))-L-cysteine amide]	1.1	> 10000	37
NC(=O)[C@H](CS)N(CCN1CCOCC1)S(=O)(=O)c1ccc(NC(=O)c2ccc(Cl)cc2)cc1 [Example 220, N-(4-(4′-chlorobenzoyl)amino)phenylsulfonyl-N-(4-(morpholinoethyl))-L-cysteine amide]	1.4	7000	
NC(=O)[C@H](CS)N(CCN1CCOCC1)S(=O)(=O)c1ccc(NC(=O)c2ccc(Br)cc2)cc1 [Example 222, N-(4-(4′-bromobenzoyl)amino)phenylsulfonyl-N-(4-(morpholinoethyl))-L-cysteine amide]	1.1	5300	
N-(1R-Mercaptomethyl)propyl-N-methyl-4-(n-butoxy)benzenesulfonamide [Example 23C]	150	4000	
N-(2-Mercapto-1R-methylethyl)-N-[2-(4-morpholino)ethyl]-4-(thiophenyl)benzenesulfonamide Hydrochloride [Example 91D]	0.7	> 10000	
N-(2-Mercapto-1S-methylethyl)-N-(phenylmethyl)-4-methoxybenzenesulfonamide [Example 13C]	2000	> 10000	
N-(2-mercapto-1R-methylethyl)-4-methylbenzenesulfonamide [Example 68]	1720	> 10000	
N-(2-mercapto-1R-methylethyl)-4-n-pentyl)benzenesulfonamide [Example 71]	40	> 10000	
N-(2-mercapto-1R-methylethyl)-4-n-propyl)benzenesulfonamide [Example 70]	440	> 10000	
